Ten molecules from ChEMBL document CHEMBL1201862, “PubChem BioAssay data set” (2004) can be followed below.

In one assay the target is Paired box protein Pax-8 (Homo sapiens, UniProt Q06710). Put plainly: PAX8 transcriptional activity inhibition in RMG-I – RMG-I cells, luciferase, cherry-pick, dose response (AID 687027).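 Further: luciferase reporter driven by Pax8 target thyroperoxidase promoter measured by SteadyGlo luminescence.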 The assay is classed as functional, cell-based.
Assay [1] is described as follows: OVCAR-3 cell viability loss – plate reader, dry powder samples, PAX8 inhibitor project, dose response (AID 743044). The assay is classed as functional, cell-based.
Assay [2] is described as follows: OVCAR8 cell viability loss – plate reader, dry powder samples, PAX8 project, dose response (AID 743197). It is filed as functional, cell-based. The conditions noted are these: OVCAR-8.
Assay [3] in a line: growth inhibition of yeast DHODH-expressing 3D7 parasites – SYBR Green, dry powder samples, dose response (AID 1159570).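 Further: parasite growth measured after 72 hours of compound exposure.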 It is filed as functional, cell-based.
Assay [4] can be described thus: toxicity to human HepG2 hepatoma cells – cell-based, plate reader, dry powder samples, cytotoxicity control, dose response (AID 1159569).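 Further: inhibitor potency with signal falling toward the positive control level.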 It is filed as functional.
Assay [5] is described as follows: P. falciparum Dd2 growth inhibitors, dose response, SYBR Green, cherry-picked samples (AID 1159567). The assay is classed as functional, cell-based.
A short description of assay [6]: Dd2 malaria parasite growth inhibition potency – SYBR Green, dry powder samples, dose response (AID 1159566).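 Further: potency for growth inhibition with lower SYBR green DNA signal.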 It is filed as functional, cell-based.
Assay [7] is described as follows: toxicity to human hepatoma HepG2 cells – cell-based, cherry-picked samples, cytotoxicity control, dose response (AID 1159577). The assay is classed as functional.
Assay [8] in a line: growth inhibition of PfATP4-mutant resistant parasites – NITD609-resistant line, SYBR Green, dry powder, dose response (AID 1159571).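 Further: parasites synchronized at ring stage by sorbitol before testing.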 It is filed as functional, cell-based.
A short description of assay [9]: glucagon-like peptide-1 release potency in STC-1, concentration-response, half-maximal inhibitory concentration in the STC-1 line (AID 1117345). It is filed as functional, cell-based.
A short description of assay [10]: Potency on glucagon-like peptide 1 release, dose-response in NCI-H716 cell line, half maximal inhibitory concentration (AID 1117344). The assay is classed as functional, cell-based.
Assay [11] can be described thus: A549 cell cytotoxicity, dose response, cytotoxicity control, plate reader, cherry-pick, antagonist series (AID 743412). It is filed as functional, cell-based.
Assay [12] can be described thus: toxicity toward HepG2 liver cells – cell-based, plate reader, cherry-pick, antagonist series, cytotoxicity control, dose response (AID 743416). It is filed as functional.
The nature of assay [13]: blockers of bursicon-stimulated LGR2 cAMP reporter – cell-based, HEK293, CRE-luciferase reporter, cherry pick, set 2, dose response (AID 743343).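 Further: transfected cells were stimulated with diluted bursicon conditioned medium after compound addition.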 It is filed as functional.
A short description of assay [14]: Dd2 parasite growth inhibition in erythrocytes – SYBR Green, dry powder samples, set 9, dose response (AID 1159568). The assay is classed as functional, cell-based.
Assay [15] can be described thus: blockade of melanocortin 4 receptor signaling – cell-based, plate reader, cherry pick, counter-screen for LGR2 antagonist project, dose response (AID 743444).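 Further: transfected HEK 293 cells stimulated with alpha-MSH peptide; potency of inhibitors of the alpha-MSH evoked signal.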 The assay is classed as functional.
Assay [16] in a line: CellTiter-Glo luminescence survival assay, SW480 colon tumor line, concentration-response curve, half-maximal inhibitory concentration (AID 1117338). The assay is classed as functional.
Assay [17] can be described thus: RKO cell viability reduction, dose response, CellTiter-Glo luminescence (AID 1117322). The assay is classed as functional.
The nature of assay [18]: cytotoxicity toward HCT116 cells – cell-based, CellTiter-Glo luminescence, IC50, dose response (AID 1117332). The assay is classed as functional. To be noted: HCT-116.
Assay [19] in a line: cytotoxicity toward Colo320 cells – cell-based, CellTiter-Glo luminescence, IC50, dose response (AID 1117334). It is filed as functional. To be noted: COLO 320.
A short description of assay [20]: cytotoxicity toward HT-29 cells – cell-based, CellTiter-Glo luminescence, IC50, dose response (AID 1117330). It is filed as functional.
A short description of assay [21]: Reduced DLD-1 viability, concentration-response, CellTiter-Glo luminescence (AID 1117352). It is filed as functional.
Assay [22] can be described thus: HCT116 cell viability decrease, GSK3B pretreatment – CellTiter-Glo, IC50, dose response (AID 1117339). It is filed as functional. The conditions noted are these: HCT-116.
Assay [23] can be described thus: SNU-C1 cell viability reduction, dose response, CellTiter-Glo luminescence (AID 1117323). The assay is classed as functional, cell-based.

Structures are written as SMILES. Structures can show the parent of a compound that is named as a salt. Calls of active or inactive are those of the source.

Chain of Paired box protein Pax-8 (Q06710 whole entry): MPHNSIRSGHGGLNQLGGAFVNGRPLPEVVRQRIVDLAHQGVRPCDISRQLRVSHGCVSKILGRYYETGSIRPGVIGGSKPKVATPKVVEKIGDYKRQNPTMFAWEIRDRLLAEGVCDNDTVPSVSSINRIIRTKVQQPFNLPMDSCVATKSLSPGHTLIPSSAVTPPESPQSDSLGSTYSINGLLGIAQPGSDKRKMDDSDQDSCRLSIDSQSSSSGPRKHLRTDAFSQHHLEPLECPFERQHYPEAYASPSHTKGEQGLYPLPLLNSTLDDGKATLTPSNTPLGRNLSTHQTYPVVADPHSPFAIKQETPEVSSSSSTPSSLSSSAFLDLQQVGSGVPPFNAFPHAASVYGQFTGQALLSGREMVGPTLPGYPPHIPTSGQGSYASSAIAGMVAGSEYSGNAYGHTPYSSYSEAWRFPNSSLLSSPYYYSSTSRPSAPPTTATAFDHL

On to `C[C@@H]1CN([C@@H](C)CO)C(=O)Cc2cc(NC(=O)Cc3cn(C)c4ccccc34)ccc2O[C@H]1CN(C)Cc1ccc(Oc2ccccc2)cc1`, for which the AC50 was 7.45 µM (active) at Paired box protein Pax-8; 22.6 µM (active) in assay [1]; 43.1 µM (active) in [2]; 1.6 µM (active) in assay [3]; 22.2 µM (active) in assay [4]; 1.34 µM (active) in [5]. The AC50 in assay [6] was 1.05 µM (active); in assay [7], > 39 µM (inactive); in assay [8], 1.65 µM (active).

For `C#CC1(O)CC[C@H]2[C@@H]3CCC4=CCCC[C@@H]4[C@H]3CC[C@@]21C` (some centres undefined), the IC50 in assay [9] is > 40 µM (inactive); in assay [10], 27.5 µM (inactive).

With `O=C(C[C@@H]1C[C@H]2c3cc(NC(=O)c4ccc5c(c4)OCO5)ccc3O[C@H]2[C@@H](CO)O1)NCc1ccc(Oc2ccccc2)cc1`, the AC50 in assay [11] was 35.3 µM (active); in assay [12] it was 20.5 µM (active); in [13] it was 32.7 µM (active); in assay [14], > 39 µM (inactive).

Turning to `C[C@@H]1CN([C@@H](C)CO)C(=O)c2cccc(NC(=O)c3ccc(-c4nccs4)cc3)c2O[C@@H]1CN(C)C(=O)Nc1ccc(C(F)(F)F)cc1`, the AC50 in assay [11] is 25.5 µM (active); in assay [12], 33.2 µM (active); in assay [13], 43.7 µM (active); in assay [15], 54.1 µM (active); in [14], 2.16 µM (active).

As for `C[C@@H]1CN([C@@H](C)CO)C(=O)c2ccccc2-c2ccccc2CO[C@H]1CN(C)C(=O)Nc1cccc(Cl)c1Cl`, the AC50 in [3] is 0.0978 µM (active); in assay [4], > 100 µM (inactive); in assay [5] it was 0.418 µM (active); in assay [6], 0.107 µM (active); in assay [8] it was 0.437 µM (active).

On to `Cc1ccc(S(=O)(=O)N(C)C[C@H]2Oc3cc(C#CC4CCCC4)ccc3S(=O)(=O)N([C@@H](C)CO)C[C@H]2C)cc1`, for which, in assay [14], the AC50 is 3.42 µM (active).

Consider `C[C@@H]1CN([C@H](C)CO)S(=O)(=O)c2ccc(C#Cc3ccncc3)cc2O[C@H]1CN(C)S(=O)(=O)c1ccc(F)cc1`, for which the AC50 in assay [3] is 0.682 µM (active); in [4] it was 3.66 µM (active); in assay [5], 2.17 µM (active); in assay [6], 1.14 µM (active); in [7] it was > 39 µM (inactive); in [8], 1.17 µM (active).

Turning to `Clc1ccc(C(Cn2ccnc2)OCc2ccc(Sc3ccccc3)cc2)c(Cl)c1` (centres undefined) [FENTICONAZOLE], the IC50 in [16] is 7.44 µM (inactive); in assay [17], 6.14 µM (inactive); in assay [18], 7.71 µM (inactive); in assay [19], 7.06 µM (inactive); in assay [20], > 20 µM (inactive); in assay [21], 7.76 µM (inactive). In addition, the IC50 in [22] is 6.77 µM (inactive).

Turning to `O=C(NC1CCN(CCc2c[nH]c3ccccc23)CC1)c1ccccc1` [INDORAMIN HYDROCHLORIDE], the IC50 in assay [16], in assay [17], in assay [23], in [19], in assay [20] and in assay [21] was > 20 µM (inactive) in each case. For the same molecule, in assay [22], the IC50 is > 20 µM (inactive).

Turning to `CN1CCN(c2cc3c(nn2)Oc2ccccc2N3C)CC1` [PIPOFEZINE], the IC50 in assay [16], in assay [17], in assay [18], in assay [23], in assay [19] and in assay [20] was > 20 µM (inactive) each time. In addition, the IC50 in [21] and in assay [22] was > 20 µM (inactive) in each case.
